Data on one molecule can be found in patent US20260108442A1, “COMPOUND FOR USE IN PROTECTING SKIN” (TDELTAS LIMITED, priority 2013, published 2026).

Each structure is given as a SMILES string.

Assay [1] concerns Human dermal fibroblast cells. Description: Cell survival after UVB irradiation, Trypan blue exclusion. Type of assay: cell-based. Particulars: viable cells at 48 hours after irradiation, FIG. 2. The method, then:
Human dermal fibroblast cells were cultured in basal medium in 6-well plates at 50,000 cells per well. The cells were incubated in medium alone or with added 4 mM R-3-hydroxybutyl-(R)-3-hydroxybutyrate. After reaching 80-90% confluence, cells were washed with phosphate-buffered saline and the medium was replaced with a thin layer of Hanks buffer, (a balanced salt solution designed to use with cells in non-CO2 atmospheric conditions). Cells were irradiated at doses of 25, 50, 100, 150, 300 and 600 mJ/cm^2 using a portable UVB source (302 nm) with a fluence rate of 0.9 mW/cm^2 at cell level. UV irradiation was performed in a fume hood to maintain sterility. After irradiation, cells were washed and incubated in medium alone or with added 4 mM R-3-hydroxybutyl-(R)-3-hydroxybutyrate (as they had been before irradiation). Another group of irradiated cells, which had initially been grown in basal medium without deltaG, was incubated with added 4 mM R-3-hydroxybutyl-(R)-3-hydroxybutyrate. Cell survival was determined by counting viable cells using Trypan blue exclusion at 48 hours after irradiation.

A further assay deals with hands of the user (skin). Description: Neat topical application to dry hands, visual inspection. Type of assay: in vivo. Particulars: used neat, massaged into dry hands, inspected after 30 minutes. The text has this:
D-betahydroxybutyrate butanediol monoester was used neat in this experiment. The hands of the user were visually inspected prior to application of the D-betahydroxybutyrate butanediol monoester. […] D-betahydroxybutyrate butanediol monoester was applied to the hands and massaged in to the skin thoroughly.

The test system of assay [2] is Primary human dermal fibroblasts (HDF). Description: Live and dead assay (Calcein AM / EthD-III) of human dermal fibroblast growth. Particulars: 4 mM in basal medium, after 10 days incubation, FIG. 1. Type of assay: cell-based. On the procedure: Primary human dermal fibroblasts (HDF), with a seeding capacity of 2,500 cells/cm^2, […] (HF) basal medium (TCS Cellworks) or basal medium containing 4 mM of the ketone ester, deltaG. The basal medium was changed daily. Cell viability was determined using a live and dead assay kit, with two colour fluorescence staining of live and dead cells using the probes, Calcein AM and EthD-III.

Consider `C[C@@H](O)CCOC(=O)C[C@@H](C)O` [R-3-hydroxybutyl-(R)-3-hydroxybutyrate], for which the “protection from UVB radiation (cell survival)” value is listed as “conferred no further benefit” in assay [1] (4 mM both before and after radiation exposure, compared with after radiation only); “protected human dermal fibroblasts from UVB radiation” in assay [1] (4 mM given to the cells after radiation, UVB 302 nm, doses between 150 and 600 mJ/cm^2, p<0.05). In addition, the “visual inspection of hands (dryness, wrinkling, feel)” value in the assay with hands of the user (skin) is “visually noticeable improvement in properties including less dryness, less wrinkling and an improved feel”. The dead cells entry in assay [2] (compared with control) was “fewer dead cells”. Moreover, the live cells in assay [2] (vs. 75% in control, P<0.05) was 89%.
